Results taken from patent publication US6586216B2 (Purdue Research Foundation, priority 1997, dated 2003).
Values joined by “and” are separate entries in the source; they are usually repeats but may differ in a detail not shown here. Identical values can stand only once. Like-named read-outs stand apart in the source and are kept apart here.

Assays:
[1] = target: T1, Bacillus subtilis glutamine PRPP amidotransferase variant S347A (Bacillus subtilis, UniProt P00497, S358A); assay: biochemical; type: biochemical
T1 construct: Enzymes of the B. subtilis class are synthesized with an NH2 terminal propeptide; made in house; host or cells: E. coli strain TX158 (purF), plasmid pBsF/S347A
T1 sequence (P00497 12-476 S358A): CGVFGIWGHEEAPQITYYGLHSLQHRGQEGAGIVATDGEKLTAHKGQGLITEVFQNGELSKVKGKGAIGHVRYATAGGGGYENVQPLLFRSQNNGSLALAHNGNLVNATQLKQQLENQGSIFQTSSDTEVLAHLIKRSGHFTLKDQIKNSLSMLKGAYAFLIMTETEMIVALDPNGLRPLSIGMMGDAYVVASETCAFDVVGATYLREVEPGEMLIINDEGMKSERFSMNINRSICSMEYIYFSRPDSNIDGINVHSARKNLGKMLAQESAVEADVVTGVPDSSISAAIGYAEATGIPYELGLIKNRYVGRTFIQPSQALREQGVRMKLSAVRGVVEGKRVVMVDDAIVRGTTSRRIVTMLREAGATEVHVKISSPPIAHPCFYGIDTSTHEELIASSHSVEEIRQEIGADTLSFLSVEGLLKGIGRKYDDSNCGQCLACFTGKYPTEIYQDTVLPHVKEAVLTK
Source text: (§1) Plasmid pGZ1 was used for production of the wild type enzyme. Plasmid pGZ1 contains a 1.6 kb EcoRI-HindIII purF^+ fragment (Makaroff, C. A., Zalkin, H., Switzer, R. L., and Vollmer, S. J. (1983) J. Biol. Chem. 258, pp. 10586-10593) inserted into the corresponding sites of pUC18. For construction of mutants, the EcoRI-HindIII purF^+ DNA was transferred to pUC118 to yield pBsF. Mutations were constructed by the method of Kunkel et al. (Kunkel, T. A., Roberts, J. D., and Zakour, R. A. (1987) Methods Enzymol. 154, pp. 367-382) using pBsF phagemid DNA. The resulting plasmids were named pBsF/S283A, pBsF/K305Q, pBsF/R307Q, and pBsF/S347A.
Enzyme activity was assayed by measuring the initial rate of formation of the product glutamate. […] Incubation was at 37° C. for 6 min. […] Reactions were quenched in a boiling water bath for 2 min, and glutamate was determined by the glutamate dehydrogenase method.
(§2) Inhibition by nucleotides was determined by the standard assay to which varied concentrations of nucleotide were added. Synergistic inhibition was determined by varying the concentration of one nucleotide in the presence of a fixed concentration of a second nucleotide. Relative activity (see FIG. 1) refers to the enzyme activity at a given concentration of the varied nucleotide relative to that in the absence of the varied nucleotide. I0.5 values were calculated from plots of relative activity versus varied nucleotide concentration.
(§3) These modified forms of amidotransferase were analyzed to determine the impact of the mutations on end-product inhibition and enzymatic activity. Inhibition by nucleotides was determined as described in Example 1.

[2] = target: T2, Bacillus subtilis glutamine PRPP amidotransferase, wild type (Bacillus subtilis, UniProt P00497); assay: Nucleotide binding by equilibrium dialysis, wild type enzyme; details: for Capacity: at saturation
T2 construct: Enzymes of the B. subtilis class are synthesized with an NH2 terminal propeptide; made in house; host or cells: E. coli strain TX158 (purF), plasmid pGZ1
T2 sequence (P00497 12-476): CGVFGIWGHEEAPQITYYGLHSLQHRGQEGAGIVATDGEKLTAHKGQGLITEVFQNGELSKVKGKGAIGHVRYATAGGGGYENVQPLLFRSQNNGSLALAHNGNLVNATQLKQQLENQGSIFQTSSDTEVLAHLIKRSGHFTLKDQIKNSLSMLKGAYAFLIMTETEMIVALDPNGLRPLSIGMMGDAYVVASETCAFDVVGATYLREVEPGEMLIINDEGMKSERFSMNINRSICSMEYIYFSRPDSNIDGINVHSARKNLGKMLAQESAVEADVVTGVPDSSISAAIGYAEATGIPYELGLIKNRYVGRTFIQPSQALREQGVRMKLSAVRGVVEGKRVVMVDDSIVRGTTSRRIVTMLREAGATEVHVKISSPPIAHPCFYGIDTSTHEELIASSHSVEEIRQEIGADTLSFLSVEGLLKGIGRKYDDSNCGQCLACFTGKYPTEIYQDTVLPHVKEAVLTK
Experimental: Plasmid pGZ1 was used for production of the wild type enzyme. […] For construction of mutants, the EcoRI-HindIII purF^+ DNA was transferred to pUC118 to yield pBsF. […] The resulting plasmids were named pBsF/S283A, pBsF/K305Q, pBsF/R307Q, and pBsF/S347A.
For enzyme purification, all buffers were sparged with nitrogen gas prior to use in order to minimize oxidation of the enzyme's Fe-S cluster. All steps were carried out at 4° C. Cells were resuspended in 4 mL/gram of buffer A [50 mM Tris-HCl (pH 8.0), 10 mM MgCl2, 0.1 mM EDTA, 5 mM DTT, and 2 mM AMP] containing 1 mM PMSF, and were disrupted by two passes through a French Press. The cell extract was obtained by centrifugation for 1 h at 27,000 g. Protamine sulfate (5 mg per gram of cells) was added to the extract to precipitate DNA. […] After centrifugation, enzyme in the brown pellet was recovered by extraction twice with 30% saturated ammonium sulfate. A small colorless pellet that remained was discarded, and the dark brown enzyme solution in buffer A containing residual ammonium sulfate was stored as beads in liquid nitrogen. […] For assays of activity, the enzyme was diluted 1:1000 in […] Tris-HCl (pH 8.0) containing 1 mg/mL bovine serum albumin. For measurements of ligand binding by equilibrium dialysis and for crystallization experiments, the enzyme was dialyzed anaerobically against buffer B [50 mM Tris-HCl (pH 8.0), 0.1 mM EDTA, and 5 mM DTT] prior to being used.
Nucleotide binding was determined by equilibrium dialysis using chambers of 150 μL that were separated by a 12000-14000 molecular weight dialysis membrane. […] In some experiments, the chambers with radioactive nucleotide also contained a fixed concentration of a second non-radioactive nucleotide. The other chamber contained 50 mM Tris-HCl (pH 7.5) and 50-200 μM enzyme, calculated as the subunit concentration, in a volume of 100 μL. Dialysis was carried out for 20 h at room temperature (˜22° C.) in a rotating apparatus. Samples of 80 μL were retrieved from each chamber and were counted for radioactivity. All experiments were performed in an anaerobic glovebox. […] Equilibrium binding data were fit to the Hill equation (Y=C [free ligand]^n/[…]+[free ligand]^n, where Y is the fractional saturation, C is the binding capacity, Kd is the dissociation constant, and n is the Hill coefficient) by nonlinear regression using Ultrafit software (Biosoft, Cambridge, UK).

[3] = target: T3, Bacillus subtilis glutamine PRPP amidotransferase variant K305Q (Bacillus subtilis, UniProt P00497, K316Q); assay: Inhibition of enzyme activity (glutamate formation) by nucleotides, mutant K305Q; type: biochemical
T3 construct: Enzymes of the B. subtilis class are synthesized with an NH2 terminal propeptide; made in house; host or cells: E. coli strain TX158 (purF), plasmid pBsF/K305Q
T3 sequence (P00497 12-476 K316Q): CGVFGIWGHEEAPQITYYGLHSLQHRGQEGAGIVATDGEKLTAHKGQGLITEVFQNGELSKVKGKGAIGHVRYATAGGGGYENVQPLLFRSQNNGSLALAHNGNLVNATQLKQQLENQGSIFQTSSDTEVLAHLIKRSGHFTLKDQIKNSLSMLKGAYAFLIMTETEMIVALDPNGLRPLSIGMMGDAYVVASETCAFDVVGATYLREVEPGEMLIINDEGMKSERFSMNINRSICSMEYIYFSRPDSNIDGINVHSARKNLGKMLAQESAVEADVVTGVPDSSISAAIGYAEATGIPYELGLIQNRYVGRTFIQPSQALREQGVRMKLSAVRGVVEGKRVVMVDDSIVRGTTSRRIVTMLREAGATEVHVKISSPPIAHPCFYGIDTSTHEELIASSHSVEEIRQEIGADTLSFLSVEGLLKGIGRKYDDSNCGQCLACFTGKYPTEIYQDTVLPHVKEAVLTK
Source text: as §1
Enzyme activity was assayed by measuring the initial rate of formation of the product glutamate. […] Incubation was at 37° C. for 6 min. The reaction was linear with time for at least 20 min under these conditions of assay. Reactions were quenched in a boiling water bath for 2 min, and glutamate was determined by the glutamate dehydrogenase method. The control reaction mixture contained all the components except PRPP.
as §2
as §3, with “Site directed mutagenesis was utilized to modify amino acids comprising the A site and C site domains of the glutamine PRPP amidotransferase. These” for “These”

[4] = I0.5, fixed GMP 1.4 mM (footnote c)
[5] = I0.5, no fixed nucleotide, 2.5 mM PRPP, pH 8.0, 37° C.
[6] = no fixed nucleotide, pH 7.5, ~22° C., half-saturation of the two sites, read-out: Kd (apparent)
[7] = I0.5, fixed ADP 0.8 mM (footnote c)

SMILES	IC50 [1, 4] [µM]	IC50 [1, 5] [µM]	syn. (decreased I0.5 due to a second nucleotide) ([1]; fixed GMP 1.4 mM (footnote c)) [fold]	Capacity ([2]; fixed GMP 1.0 mM)	Kd ([2]; fixed GMP 1.0 mM, read-out: Kd) [µM]	Hill coefficient ([2]; no fixed nucleotide)	Capacity ([2]; no fixed nucleotide)	Kd [2, 6]	IC50 [3, 5] [µM]	IC50 [1, 7] [µM]	syn. (decreased I0.5 due to a second nucleotide) ([1]; fixed ADP 0.8 mM (footnote c)) [fold]	Capacity ([2]; fixed ADP 0.5 mM)	further results
Nc1ncnc2c1ncn2[C@@H]1O[C@H](COP(=O)(O)OP(=O)(O)O)[C@@H](O)[C@H]1O [ADP]	220	8100	37.0	0.94 ± 0.14 Equivalents bound per subunit	11	1.8	1.83 Equivalents bound per subunit and 1.83 ± 0.26 Equivalents bound per subunit	214 µM and ~214 µM	31000				decrease of Kd in the presence of GMP ([2]; GMP present): 20 fold; Kd ([2]; Kd, GMP fixed at either 0.25 or 1.0 mM): ~10 µM; Capacity ([2]; fixed GMP 0.25 mM): 0.82 ± 0.11 Equivalents bound per subunit; Kd ([2]; fixed GMP 0.25 mM, read-out: Kd): 10.4 ± 2.7 µM; IC50 ([3]; I0.5, fixed GMP 0.50 mM): 12000 µM; IC50 ([3]; I0.5, fixed GMP 5.0 mM): 320 µM; syn. (decreased I0.5 due to a second nucleotide) ([3]; fixed GMP 0.50 mM): 2.6 fold; syn. (decreased I0.5 due to a second nucleotide) ([3]; fixed GMP 5.0 mM): 97.0 fold
Nc1ncnc2c1ncn2[C@@H]1O[C@H](COP(=O)(O)O)[C@@H](O)[C@H]1O [AMP]	1800	1500	0.8	1.05 ± 0.21 Equivalents bound per subunit	103	3.4	1.57 Equivalents bound per subunit and 1.57 ± 0.27 Equivalents bound per subunit	240 µM and 239 µM	2500	650	2.3	approximately 0.4 Equivalents bound per subunit	Capacity ([2]; fixed ADP 0.25 mM): 0.94 ± 0.16 Equivalents bound per subunit; Kd ([2]; fixed ADP 0.25 mM, read-out: Kd): 77 µM; increase of binding affinity by GMP or ADP ([2]; fixed GMP or ADP): 2-3 fold
Nc1nc2c(ncn2[C@@H]2O[C@H](COP(=O)(O)O)[C@@H](O)[C@H]2O)c(=O)[nH]1 [GMP]		14000							50000	440	33.0	0.98 ± 0.10 Equivalents bound per subunit	I0.5 increase relative to wild type ([1]; inhibition at the C site): 3 fold; increased binding affinity (C site) relative to AMP ([2]; ADP bound to the A site): 3 fold; increased binding affinity (C site) relative to IMP ([2]; ADP bound to the A site): 3 fold; Kd ([2]; Kd, fixed ADP 0.5 mM): 25 µM; Kd ([2]; Kd, no fixed nucleotide, not detected): > 500 µM; Kd for the free enzyme, estimated ([2]; assuming a synergism of 20-fold): approximately 500 μM; Kd ([2]; no fixed nucleotide, binding too weak to detect, read-out: Kd): > 500 µM; IC50 ([3]; I0.5, fixed ADP 0.5 mM): 6000 µM; IC50 ([3]; I0.5, fixed ADP 2.5 mM): 1300 µM; syn. (decreased I0.5 due to a second nucleotide) ([3]; fixed ADP 0.5 mM): 8.3 fold; syn. (decreased I0.5 due to a second nucleotide) ([3]; fixed ADP 2.5 mM): 38.0 fold
